Measured values taken from ChEMBL document CHEMBL1201862, “PubChem BioAssay data set” (2004).
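Tested at 5 concentrations; 48 h exposure; 96-well plates; endpoints linearly interpolated, else capped at highest concentration. Here, GI50 denotes the concentration required for 50% inhibition of growth.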 The source made the active and inactive calls. Rule as the data show it: active = GI50 up to about 1.1 µM and inactive = higher.

Legend:
Test in all cases: NCI-60 cell line screen, 48 h
Malme-3M = test system: Malme-3M
M19-MEL = test system: M19-MEL
SF-539 = test system: SF-539
OVCAR-4 = test system: OVCAR-4
NCI-H522 = test system: NCI-H522
MOLT-4 = test system: MOLT-4
DLD-1 = test system: DLD-1
SK-MEL-28 = test system: SK-MEL-28
A498 = test system: A498
NCI-H23 = test system: NCI-H23
M14 = test system: M14
SK-OV-3 = test system: SK-OV-3
UO-31 = test system: UO-31
HCC 2998 = test system: HCC 2998
OVCAR-8 = test system: OVCAR-8
OVCAR-5 = test system: OVCAR-5
RXF 631 = test system: RXF 631
NCI-H460 = test system: NCI-H460
IGROV-1 = test system: IGROV-1
SF-295 = test system: SF-295
SR = test system: SR
SK-MEL-2 = test system: SK-MEL-2
HT-29 = test system: HT-29
HL-60 = test system: HL-60
KM12 = test system: KM12
COLO 205 = test system: COLO 205
UACC-257 = test system: UACC-257
TK-10 = test system: TK-10
CAKI-1 = test system: CAKI-1
RXF 393 = test system: RXF 393
HCT-116 = test system: HCT-116
EKVX = test system: EKVX
ACHN = test system: ACHN
CCRF-CEM = test system: CCRF-CEM
SF-268 = test system: SF-268
UACC-62 = test system: UACC-62
K562 = test system: K562
HOP-92 = test system: HOP-92
DMS-114 = test system: DMS-114
SK-MEL-5 = test system: SK-MEL-5
SW-620 = test system: SW-620
786-0 = test system: 786-0
HOP-62 = test system: HOP-62
KM-20L2 = test system: KM-20L2
OVCAR-3 = test system: OVCAR-3
RPMI-8226 = test system: RPMI-8226
SN12C = test system: SN12C
A549 = test system: A549
SNB-19 = test system: SNB-19
HCT-15 = test system: HCT-15
XF498 = test system: XF498
NCI-H226 = test system: NCI-H226
LXFL 529 = test system: LXFL 529
SNB-75 = test system: SNB-75
LOX IMVI = test system: LOX IMVI

In the case of `C[N+](C)(C)CC(=O)N/N=C(/Cc1nc2c3c(ccc2nc1O)C(=O)c1ccccc1C3=O)C(=O)Nc1ccc(Cl)c(Cl)c1`, the GI50 (Malme-3M) was > 100 µM (inactive), the GI50 (M19-MEL) was 38.2 µM (inactive) and the GI50 (SF-539) was 93.1 µM (inactive). For the same compound, the GI50 (OVCAR-4) was 87.9 µM (inactive), the GI50 (NCI-H522) was 22.9 µM (inactive) and the GI50 (MOLT-4) was 19.9 µM (inactive). The GI50 (DLD-1) was 17.9 µM (inactive), the GI50 (SK-MEL-28) was > 100 µM (inactive) and the GI50 (A498) was 33.7 µM (inactive). The GI50 (NCI-H23) was 44.6 µM (inactive), the GI50 (M14) was 81.1 µM (inactive) and the GI50 (SK-OV-3) was 23.9 µM (inactive). The GI50 (UO-31) was 6.84 µM (inactive), the GI50 (HCC 2998) was 76.9 µM (inactive) and the GI50 (OVCAR-8) was 50.5 µM (inactive). For the same compound, the GI50 (OVCAR-5) was > 100 µM (inactive), the GI50 (RXF 631) was 76.6 µM (inactive) and the GI50 (NCI-H460) was 40.7 µM (inactive). The GI50 (IGROV-1) was 12.7 µM (inactive), the GI50 (SF-295) was 79.4 µM (inactive) and the GI50 (SR) was 16 µM (inactive). The GI50 (SK-MEL-2) was 91.2 µM (inactive), the GI50 (HT-29) was > 100 µM (inactive) and the GI50 (HL-60) was 8.15 µM (inactive). The GI50 (KM12) was 19.7 µM (inactive), the GI50 (COLO 205) was > 100 µM (inactive) and the GI50 (UACC-257) was > 100 µM (inactive). The GI50 (TK-10) was 39.1 µM (inactive), the GI50 (CAKI-1) was 15.5 µM (inactive) and the GI50 (RXF 393) was 23.2 µM (inactive). The GI50 (HCT-116) was 43.3 µM (inactive), the GI50 (EKVX) was 13.1 µM (inactive) and the GI50 (ACHN) was 24 µM (inactive). For the same compound, the GI50 (CCRF-CEM) was 4.16 µM (inactive), the GI50 (SF-268) was 26 µM (inactive) and the GI50 (UACC-62) was 41.6 µM (inactive). The GI50 (K562) was 53.5 µM (inactive), the GI50 (HOP-92) was 29.6 µM (inactive) and the GI50 (DMS-114) was 27 µM (inactive). The GI50 (SK-MEL-5) was 36.6 µM (inactive), the GI50 (SW-620) was 35.2 µM (inactive) and the GI50 (786-0) was 77.6 µM (inactive). For the same compound, the GI50 (HOP-62) was 35.9 µM (inactive), the GI50 (KM-20L2) was > 100 µM (inactive) and the GI50 (OVCAR-3) was 30.2 µM (inactive). The GI50 (RPMI-8226) was 17.4 µM (inactive), the GI50 (SN12C) was 86.9 µM (inactive) and the GI50 (A549) was 42.7 µM (inactive).
For `C/C(=N\NC(=N)N)C(CN1CCCCC1)C(c1ccccc1)c1c(O)c2ccccc2oc1=O` (stereo not drawn), the GI50 (Malme-3M) was > 100 µM (inactive), the GI50 (M19-MEL) was > 100 µM (inactive) and the GI50 (SF-539) was > 100 µM (inactive). The GI50 (OVCAR-4) was > 100 µM (inactive), the GI50 (NCI-H522) was 43.6 µM (inactive) and the GI50 (SNB-19) was > 100 µM (inactive). For the same compound, the GI50 (DLD-1) was > 100 µM (inactive), the GI50 (SK-MEL-28) was > 100 µM (inactive) and the GI50 (A498) was > 100 µM (inactive). The GI50 (HCT-15) was greater than 100 µM, the GI50 (NCI-H23) was > 100 µM (inactive) and the GI50 (M14) was > 100 µM (inactive). For the same compound, the GI50 (SK-OV-3) was > 100 µM (inactive), the GI50 (HCC 2998) was > 100 µM (inactive) and the GI50 (OVCAR-8) was > 100 µM (inactive). The GI50 (OVCAR-5) was > 100 µM (inactive), the GI50 (RXF 631) was > 100 µM (inactive) and the GI50 (XF498) was > 100 µM (inactive). For the same compound, the GI50 (IGROV-1) was > 100 µM (inactive), the GI50 (SF-295) was > 100 µM (inactive) and the GI50 (SR) was > 100 µM (inactive). For the same compound, the GI50 (SK-MEL-2) was > 100 µM (inactive), the GI50 (HT-29) was > 100 µM (inactive) and the GI50 (NCI-H226) was > 100 µM (inactive). The GI50 (HL-60) was > 100 µM (inactive), the GI50 (COLO 205) was > 100 µM (inactive) and the GI50 (UACC-257) was > 100 µM (inactive). The GI50 (TK-10) was > 100 µM (inactive), the GI50 (CAKI-1) was > 100 µM (inactive) and the GI50 (RXF 393) was > 100 µM (inactive). The GI50 (HCT-116) was > 100 µM (inactive), the GI50 (EKVX) was > 100 µM (inactive) and the GI50 (ACHN) was > 100 µM (inactive). The GI50 (CCRF-CEM) was > 100 µM (inactive), the GI50 (SF-268) was > 100 µM (inactive) and the GI50 (LXFL 529) was > 100 µM (inactive). For the same compound, the GI50 (UACC-62) was > 100 µM (inactive), the GI50 (K562) was > 100 µM (inactive) and the GI50 (HOP-92) was 47.8 µM (inactive). For the same compound, the GI50 (DMS-114) was > 100 µM (inactive), the GI50 (SNB-75) was > 100 µM (inactive) and the GI50 (SW-620) was > 100 µM (inactive). For the same compound, the GI50 (LOX IMVI) was > 100 µM (inactive), the GI50 (786-0) was > 100 µM (inactive) and the GI50 (HOP-62) was > 100 µM (inactive). For the same compound, the GI50 (KM-20L2) was > 100 µM (inactive), the GI50 (OVCAR-3) was > 100 µM (inactive) and the GI50 (RPMI-8226) was > 100 µM (inactive). For the same compound, the GI50 (SN12C) was > 100 µM (inactive) and the GI50 (A549) was > 100 µM (inactive).
